Results from ChEMBL document CHEMBL5143557, “Synthesis and biological evaluation of 3β-O-neoglycosides of caudatin and its analogues as potential anticancer agents” (Bioorg Med Chem, 2022).

Legend:
Format in all cases: functional, cell-based
MCF7 = test: Antiproliferative activity against human MCF7 cells after 48 hrs by MTT assay; conditions: MCF7, 48 h
HeLa = test: Antiproliferative activity against human HeLa cells after 48 hrs by MTT assay
HCT-116 = test: Antiproliferative activity against human HCT-116 cells after 48 hrs by MTT assay; conditions: HCT-116, 48 h
HepG2 = test: Antiproliferative activity against human HepG2 cells after 48 hrs by MTT assay; conditions: HepG2, 48 h

SMILES	IC50 (MCF7) [µM]	IC50 (HeLa) [µM]	IC50 (HCT-116) [µM]	IC50 (HepG2) [µM]
CC(=O)O[C@H]1[C@H](OC(C)=O)[C@@H](O[C@H]2CC[C@@]3(C)C(=CC[C@]4(O)[C@@H]3C[C@@H](OC(=O)/C=C(\C)C(C)C)[C@@]3(C)[C@]4(O)CC[C@@]3(O)C(C)=O)C2)O[C@@H](C)[C@H]1OC(C)=O	31.5	31.7	18.4	18.9
CC(=O)[C@]1(O)CC[C@@]2(O)[C@]1(C)[C@H](OC(=O)/C=C(\C)C(C)C)C[C@@H]1[C@@]3(C)CC[C@H](O)CC3=CC[C@]12O [CAUDATIN]	> 100	> 100	64.1	65.9
CC(=O)O[C@@H]1[C@@H](OC(C)=O)[C@H](O[C@H]2CC[C@@]3(C)C(=CC[C@]4(O)[C@@H]3C[C@@H](OC(=O)/C=C/c3ccccc3)[C@@]3(C)[C@]4(O)CC[C@@]3(O)[C@H](C)OC(=O)c3cccnc3)C2)OC[C@H]1OC(C)=O	> 100	> 100	63.6	70.1
CC(=O)O[C@@H]1[C@@H](O[C@H]2CC[C@@]3(C)C(=CC[C@]4(O)[C@@H]3C[C@@H](OC(=O)/C=C(\C)C(C)C)[C@@]3(C)[C@]4(O)CC[C@@]3(O)C(C)=O)C2)OC[C@H](OC(C)=O)[C@H]1OC(C)=O	47	28.1	12	15.8
CC(=O)O[C@@H]1[C@@H](O[C@H]2CC[C@@]3(C)C(=CC[C@]4(O)[C@@H]3C[C@@H](OC(=O)/C=C(\C)C(C)C)[C@@]3(C)[C@]4(O)CC[C@@]3(O)C(C)=O)C2)OC[C@H](OC(C)=O)[C@@H]1OC(C)=O	24.5	18.1	15.9	6.85
CC(=O)O[C@@H]1[C@@H](OC(C)=O)[C@H](C)O[C@@H](O[C@H]2CC[C@@]3(C)C(=CC[C@]4(O)[C@@H]3C[C@@H](OC(=O)/C=C/c3ccccc3)[C@@]3(C)[C@]4(O)CC[C@@]3(O)[C@H](C)OC(=O)c3cccnc3)C2)[C@@H]1OC(C)=O	> 100	> 100	71.4	69.1
CC(=O)O[C@H]1[C@@H](OC(C)=O)[C@@H](C)O[C@@H](O[C@H]2CC[C@@]3(C)C(=CC[C@]4(O)[C@@H]3C[C@@H](OC(=O)/C=C(\C)C(C)C)[C@@]3(C)[C@]4(O)CC[C@@]3(O)C(C)=O)C2)[C@@H]1OC(C)=O	38.3	44.3	20.3	23.8
CC(=O)O[C@@H]1[C@@H](O[C@H]2CC[C@@]3(C)C(=CC[C@]4(O)[C@@H]3C[C@@H](OC(=O)/C=C(\C)C(C)C)[C@@]3(C)[C@]4(O)CC[C@@]3(O)C(C)=O)C2)OC[C@@H](OC(C)=O)[C@H]1OC(C)=O	52.6	60.5	29.6	52.8
CC(=O)[C@]1(O)CC[C@@]2(O)[C@]1(C)[C@H](OC(=O)c1ccc(O)cc1)C[C@@H]1[C@@]3(C)CC[C@H](O)CC3=CC[C@]12O	83.1	> 100	73	79.1
CC(=O)N[C@H]1[C@H](O[C@H]2CC[C@@]3(C)C(=CC[C@]4(O)[C@@H]3C[C@@H](OC(=O)/C=C(\C)C(C)C)[C@@]3(C)[C@]4(O)CC[C@@]3(O)C(C)=O)C2)O[C@H](COC(C)=O)[C@@H](OC(C)=O)[C@@H]1OC(C)=O	21.1	23.8	17.3	5.5
CC(=O)OC[C@H]1O[C@@H](O[C@H]2CC[C@@]3(C)C(=CC[C@]4(O)[C@@H]3C[C@@H](OC(=O)/C=C/c3ccccc3)[C@@]3(C)[C@]4(O)CC[C@@]3(O)[C@H](C)OC(=O)c3cccnc3)C2)[C@H](OC(C)=O)[C@@H](OC(C)=O)[C@H]1OC(C)=O	24.5	20.7	7.11	8.49
CC(=O)OC[C@H]1O[C@@H](O[C@H]2CC[C@@]3(C)C(=CC[C@]4(O)[C@@H]3C[C@@H](OC(=O)c3ccc(O)cc3)[C@@]3(C)[C@]4(O)CC[C@@]3(O)C(C)=O)C2)[C@H](OC(C)=O)[C@@H](OC(C)=O)[C@@H]1OC(C)=O	90.9	95.8	66.2	74.5
CC(=O)[C@]1(O)CC[C@@]2(O)[C@]1(C)[C@H](OC(=O)c1ccc(O)cc1)C[C@@H]1[C@@]3(C)CC[C@H](O[C@@H]4O[C@H](CO)[C@@H](O)[C@H](O)[C@H]4O)CC3=CC[C@]12O	92.6	95.5	75.1	65.3
CC(=O)O[C@H]1C[C@H](O[C@H]2CC[C@@]3(C)C(=CC[C@]4(O)[C@@H]3C[C@@H](OC(=O)/C=C(\C)C(C)C)[C@@]3(C)[C@]4(O)CC[C@@]3(O)C(C)=O)C2)OC[C@H]1OC(C)=O	26.2	43.8	31.6	14.1
CC(=O)[C@]1(O)CC[C@@]2(O)[C@]1(C)[C@H](OC(=O)c1ccc(O)cc1)C[C@@H]1[C@@]3(C)CC[C@H](O[C@@H]4O[C@@H](C)[C@H](O)[C@@H](O)[C@H]4O)CC3=CC[C@]12O	88.5	91.3	60.3	54.6
CC(=O)OC[C@H]1O[C@@H](O[C@H]2CC[C@@]3(C)C(=CC[C@]4(O)[C@@H]3C[C@@H](OC(=O)c3ccc(O)cc3)[C@@]3(C)[C@]4(O)CC[C@@]3(O)C(C)=O)C2)[C@H](OC(C)=O)[C@@H](OC(C)=O)[C@H]1OC(C)=O	20.8	22.8	9.32	9.9
CC(=O)OC[C@H]1O[C@H](O[C@H]2CC[C@@]3(C)C(=CC[C@]4(O)[C@@H]3C[C@@H](OC(=O)/C=C(\C)C(C)C)[C@@]3(C)[C@]4(O)CC[C@@]3(O)C(C)=O)C2)[C@@H](OC(C)=O)[C@@H](OC(C)=O)[C@@H]1OC(C)=O	42.7	70.2	15.6	23.7
CC(=O)OC[C@H]1O[C@@H](O[C@H]2CC[C@@]3(C)C(=CC[C@]4(O)[C@@H]3C[C@@H](OC(=O)/C=C/c3ccccc3)[C@@]3(C)[C@]4(O)CC[C@@]3(O)[C@H](C)OC(=O)c3cccnc3)C2)[C@H](OC(C)=O)[C@@H](OC(C)=O)[C@@H]1OC(C)=O	82.8	79.6	36.1	26.4
CC(=O)O[C@H]1[C@H](O[C@H]2CC[C@@]3(C)C(=CC[C@]4(O)[C@@H]3C[C@@H](OC(=O)/C=C(\C)C(C)C)[C@@]3(C)[C@]4(O)CC[C@@]3(O)C(C)=O)C2)OC[C@@H](OC(C)=O)[C@H]1OC(C)=O	61.1	58.7	52.1	30.8
CC(=O)O[C@@H]1[C@@H](OC(C)=O)[C@H](C)O[C@@H](O[C@H]2CC[C@@]3(C)C(=CC[C@]4(O)[C@@H]3C[C@@H](OC(=O)c3ccc(O)cc3)[C@@]3(C)[C@]4(O)CC[C@@]3(O)C(C)=O)C2)[C@@H]1OC(C)=O	53.6	57.1	48.7	41.4
CC(=O)OC[C@H]1O[C@@H](O[C@H]2CC[C@@]3(C)C(=CC[C@]4(O)[C@@H]3C[C@@H](OC(=O)/C=C(\C)C(C)C)[C@@]3(C)[C@]4(O)CC[C@@]3(O)C(C)=O)C2)[C@H](OC(C)=O)[C@@H](OC(C)=O)[C@H]1OC(C)=O	16.9	24.8	7.41	9.7
CC(=O)O[C@@H]1[C@@H](OC(C)=O)[C@H](O[C@H]2CC[C@@]3(C)C(=CC[C@]4(O)[C@@H]3C[C@@H](OC(=O)/C=C(\C)C(C)C)[C@@]3(C)[C@]4(O)CC[C@@]3(O)C(C)=O)C2)OC[C@H]1OC(C)=O	50.4	85.3	34.9	42.6
CC(=O)[C@]1(O)CC[C@@]2(O)[C@]1(C)[C@H](OC(=O)c1ccc(O)cc1)C[C@@H]1[C@@]3(C)CC[C@H](O[C@@H]4O[C@H](CO)[C@H](O)[C@H](O)[C@H]4O)CC3=CC[C@]12O	20.9	25.1	27.3	23.7
CC(=O)O[C@@H]1[C@@H](OC(C)=O)[C@H](O[C@H]2CC[C@@]3(C)C(=CC[C@]4(O)[C@@H]3C[C@@H](OC(=O)c3ccc(O)cc3)[C@@]3(C)[C@]4(O)CC[C@@]3(O)C(C)=O)C2)OC[C@H]1OC(C)=O	55.4	60.8	35.3	28.5
C[C@H](OC(=O)c1cccnc1)[C@]1(O)CC[C@@]2(O)[C@]1(C)[C@H](OC(=O)/C=C/c1ccccc1)C[C@@H]1[C@@]3(C)CC[C@H](O)CC3=CC[C@]12O [GAGAMININ]	> 100	96.4	69.9	65
CC(=O)O[C@@H]1[C@@H](OC(C)=O)[C@H](C)O[C@@H](O[C@H]2CC[C@@]3(C)C(=CC[C@]4(O)[C@@H]3C[C@@H](OC(=O)/C=C(\C)C(C)C)[C@@]3(C)[C@]4(O)CC[C@@]3(O)C(C)=O)C2)[C@@H]1OC(C)=O	95	> 100	26.1	72.8
CC(=O)[C@]1(O)CC[C@@]2(O)[C@]1(C)[C@H](OC(=O)/C=C(\C)C(C)C)C[C@@H]1[C@@]3(C)CC[C@H](O[C@H]4OC[C@H](O)[C@H](O)[C@@H]4O)CC3=CC[C@]12O	> 100	> 100	72.1	51.8
CC(=O)O[C@@H]1[C@@H](OC(C)=O)[C@H](O[C@H]2CC[C@@]3(C)C(=CC[C@]4(O)[C@@H]3C[C@@H](OC(=O)/C=C(\C)C(C)C)[C@@]3(C)[C@]4(O)CC[C@@]3(O)C(C)=O)C2)OC[C@@H]1OC(C)=O	43.1	33.6	23.8	23.6
CC(=O)[C@]1(O)CC[C@@]2(O)[C@]1(C)[C@H](OC(=O)/C=C(\C)C(C)C)C[C@@H]1[C@@]3(C)CC[C@H](O[C@@H]4OC[C@@H](O)[C@H](O)[C@H]4O)CC3=CC[C@]12O	95.9	> 100	90.9	90.9
COc1cc2c(c(OC)c1OC)-c1ccc(OC)c(=O)cc1[C@@H](NC(C)=O)CC2 [COLCHICINE]	0.028	–	0.046	0.064
